Values of other authors in patent US5179102A, “Naphthyridinyl/naphthyridinylalkyl-n-terminal anino hydroxy β-amino acid derivatives” (G. D. Searle & Co., priority 1991, dated 1993).
Square brackets hold non-standard residues; d marks the D form. Peptide text beside a SMILES is read from it. * marks the point of attachment. Sta = CC(C)C[C@H](N)[C@@H](O)CC(=O)O; Isovaleryl = CC(C)CC(=O)*

System: hog renin
Settings: after the injection of hog renin into nephrectomized rats

Question: For `CC(C)CC(=O)N[C@H](C(=O)N[C@H](C(=O)N[C@@H](CC(C)C)[C@@H](O)CC(=O)N[C@@H](C)C(=O)N[C@@H](CC(C)C)[C@@H](O)CC(=O)O)C(C)C)C(C)C` [pepstatin] (Isovaleryl-VV[Sta]A[Sta]-OH), which “reduce blood pressure in vivo” value is on record?
Answer: Its value is “found to reduce blood pressure in vivo”.
